The source of these data is US9980967B1, “Method for overcoming drug resistance of EGFR mutation and cancerous stemness of human non-small cell lung carcinoma” (NATIONAL CHIAO TUNG UNIVERSITY, priority 2017, dated 2018).

For experiment [1], the system named is A549-ON cells. Briefly: MTT cell viability assay in A549-ON cells. Format: cell-based, human. The conditions noted are these: 10~40 μM for 24 hours, concentration-dependent. As for the experimental part:
After treatment, the cells were re-cultured in fresh medium for 2 days. The cell viability was analyzed by MTT assays. The results were obtained from three independent experiments and the bar represents the mean±S.E.M. ***p<0.001 indicates significant difference between Gefitinib and SP101 treated samples.
A549 (ATCC number: CCL-185) was a non-small cell lung carcinoma cell line which expressed wild type EGFR and with K-Ras mutation (G12S). H1975 (ATCC number: CRL-5908) was a non-small cell lung carcinoma cell line which expressed EGFR L858R/T790M mutation. Oct4 and Nanog overexpression in A549-ON presented the properties of cancer stem-like cells, as well as epithelial-mesenchymal transdifferentiation. PLC26 was lung cancer cells that separated from pleural effusion of a clinical lung cancer patient (IRB number: 103-011-E). A549-ON cells were cultured in DMEM medium. A549 and H1975 cells were maintained in RPMI-1640 medium. […]
Please refer to FIG. 12. […] To compare the cell viability of SP101 and Gefitinib in K-Ras mutation-drug resistant A549 and A549-ON cell lines, the cells were treated with 0˜40 μM SP101 or Gefitinib for 24 hours, and analyzed by MTT assays. […] To determine the effect of SP101 and Gefitinib on the cell viability in cancer stem-like A549-ON cells, the cells were treated with 10˜40 μM SP101 or Gefitinib for 24 hours, and analyzed by MTT assays.

Experiment [2] concerns Oct4, Nanog and Survivin in A549-ON cells. As to the kind of experiment: Western blot and immunofluorescence of Oct4, Nanog and Survivin in A549-ON cells. Format: cell-based, human. As for the experimental part: At the end of treatment, the total protein extracts were prepared for Western blot analyses using specific antibodies, including rabbit anti-Survivin, rabbit anti-cleaved caspase 3 and mouse anti-actin. Representative immunoblotting data were shown from one of three separate experiments with similar findings. […] was an internal control protein.
(§1) FIG. 17 is a result of immunofluorescence staining and confocal microscopy. Then green color indicates the location of Oct4 excited with 488 nm and the emission and collected in 493-518 nm. The β-tubulin was stained with Cy3-labeled mouse anti-β-tubulin antibody. The fluorescence intensity of β-tubulin (red color) was excited with 543 nm and the emission was collected in range of 560-580 nm. Blue fluorescence indicates nuclei following staining with Hoechst 33258 and was excited with 405 nm and the emission was collected in 415-450 nm. Overlapping localization is shown in the merged images.
as §1, with “18” for “17”, “Survivin protein” for “Oct4”
Oct4 and Nanog have been served as markers of tumorigenesis. Furthermore, Oct4 played a pivotal role in Gefitinib resistance in lung cancer stem cells. […] Please refer to FIG. 16. […] We further investigated the expression of Oct4 and Survivin by immunofluorescence staining and confocal microscopy. Please refer to FIGS. 17 and 18. The green fluorescence (dylight 488) indicated the location of Oct4 and Survivin. The blue fluorescence (Hoechst 33258) and red (Cy3) fluorescence represent nucleus and β-tubulin, respectively. Treatment with 30 μM SP101 for 24 hours inhibited Oct4 proteins expression and induced apoptotic bodies as shown in FIG. 17; moreover, the Survivin proteins were inhibited by SP101 treatment as shown in FIG. 18.

[3] abbreviates: 30 μM for 24 hours, immunofluorescence and confocal microscopy.
Setting [4] is: 20<30 μM for 24 hours, Western blot.

Turning to `CCCCCCCCCCCCOC(=O)CCC(=O)N1CCN(CCCOc2cc3c(Nc4ccc(F)c(Cl)c4)ncnc3cc2OC)CC1` [SP101, dodecyl 4-(4-(3-(4-(3-chloro-4-fluorophenylamino)-7-methoxyquinazolin-6-yloxy)propyl)piperazin-1-yl)-4-oxobutanoate], in experiment [1], the cell viability result is listed as “significantly reduced”. In addition, in experiment [2] (setting [3]), the Oct4 proteins expression result is “inhibited” and the Survivin proteins result was “inhibited”. Besides, in experiment [2] (setting [4]), the Nanog protein expression result is given as “significantly reduced”, the Oct4 protein expression result is “significantly reduced” and the Survivin protein expression result was “significantly reduced”.
